Experimental data published in patent publication US20240391931A1 (Bristol-Myers Squibb Company, priority 2021, published 2024).
Counter-ions that a name gives are not always drawn.

Experiments:
[1] = target: T1, HER2YVMA (Homo sapiens, UniProt P04626, INS775YVMA); experiment: HER2 occupancy assay in Ba/F3-HER2YVMA cells; assay type: cell-based; design: expressed in transfected cells; host or cells: Ba/F3 (clones); lentiviral vector pCDH-CMV-MCS-EF1-Neo; conditions: concentration at which 50% of HER2 is irreversible bound, read-out: Ba/F3 YVMA HER2 Occ
T1 sequence (P04626 with tags, fused parts or gaps INS775YVMA): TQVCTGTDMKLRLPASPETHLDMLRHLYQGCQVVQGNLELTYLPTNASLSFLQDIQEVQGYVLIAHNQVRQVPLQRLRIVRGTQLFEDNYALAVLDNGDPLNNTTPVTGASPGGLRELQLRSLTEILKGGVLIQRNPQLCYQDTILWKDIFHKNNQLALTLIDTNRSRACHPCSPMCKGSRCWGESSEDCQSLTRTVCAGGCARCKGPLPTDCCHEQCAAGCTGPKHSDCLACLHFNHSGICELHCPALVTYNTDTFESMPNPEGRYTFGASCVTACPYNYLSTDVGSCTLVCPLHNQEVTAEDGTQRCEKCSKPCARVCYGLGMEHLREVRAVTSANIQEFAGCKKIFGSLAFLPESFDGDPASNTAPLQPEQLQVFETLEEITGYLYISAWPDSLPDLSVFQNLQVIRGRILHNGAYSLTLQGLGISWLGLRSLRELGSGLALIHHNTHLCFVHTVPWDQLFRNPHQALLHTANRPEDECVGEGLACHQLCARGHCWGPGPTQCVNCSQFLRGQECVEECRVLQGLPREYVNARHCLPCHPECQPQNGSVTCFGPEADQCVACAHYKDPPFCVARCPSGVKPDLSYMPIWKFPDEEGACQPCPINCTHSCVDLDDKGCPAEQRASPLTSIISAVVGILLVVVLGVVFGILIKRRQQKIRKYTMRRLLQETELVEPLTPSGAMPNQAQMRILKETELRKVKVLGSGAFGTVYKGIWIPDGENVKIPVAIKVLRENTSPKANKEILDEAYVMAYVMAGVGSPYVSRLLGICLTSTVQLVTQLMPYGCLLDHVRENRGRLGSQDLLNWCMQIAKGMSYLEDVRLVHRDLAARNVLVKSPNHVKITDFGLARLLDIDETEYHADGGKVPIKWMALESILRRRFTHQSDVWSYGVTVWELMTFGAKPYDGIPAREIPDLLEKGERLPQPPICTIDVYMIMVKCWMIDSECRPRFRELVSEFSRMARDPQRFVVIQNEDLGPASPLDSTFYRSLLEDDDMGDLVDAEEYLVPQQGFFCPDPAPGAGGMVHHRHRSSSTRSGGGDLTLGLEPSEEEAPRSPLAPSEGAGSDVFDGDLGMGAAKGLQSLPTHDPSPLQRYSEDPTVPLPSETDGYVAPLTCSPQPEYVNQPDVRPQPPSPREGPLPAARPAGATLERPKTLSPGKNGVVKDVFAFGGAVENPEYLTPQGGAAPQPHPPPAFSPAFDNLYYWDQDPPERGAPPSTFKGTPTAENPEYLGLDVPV
Procedure: In order to assess free HER2 protein, a biotinylated probe was utilized. BT474, N87, and Ba/F3-HER2YVMA cells were treated with test compound as described for HER2 signaling. After compound treatment, cells were washed three times with cold phosphate buffer saline (PBS, Life Technologies, Carlsbad, CA), and lysed in modified occupancy lysis buffer prepared with an irreversible biotinylated tool compound (1 μM) in 25 mM Tris pH 7.5, 150 mM NaCl, 1% Triton, and supplemented with cOmplete, EDTA-free Protease inhibitor cocktail (Roche), Phosphatase Inhibitor Cocktails 2 and 3 (Sigma-Aldrich), and 1 mM PMSF (Sigma-Aldrich). To determine % occupancy, lysates were loaded into duplicate plates of the phospho ([…])/total ErbB2 whole cell lysate MSD kit (Meso-Scale Discovery) and incubated overnight. Plates were washed and incubation with either HER2-sulfoTag (1:50, Meso Scale Discovery) or Strep-Sulfo Tag (1:1000, Meso Scale Discovery), for detection of […]. A standard curve of untreated cells in serial dilution was included in each plate to independently fit streptavidin (Free HER2) and total HER2 MSD signals; non-specific signal (BSA control spots) was subtracted from each well. Free HER2 was then normalized by total HER2 for each sample. The results are reported as % DMSO control. The normalized data was fitted using a sigmoidal curve analysis program (Graph Pad Prism version 6) with variable Hill slope to determine EC50 values. The results are provided in Table 4, under columns titled “BT474-HER2 Occ”, “N87-HER2 Occ”, and “Ba/F3 YVMA-HER2 Occ”. HER2 Occ is the concentration of test compound at which 50% of HER2 is irreversible bound.

[2] = target: T1, HER2YVMA; experiment: HER2 signaling (pHER2) in Ba/F3-HER2YVMA cells; assay type: cell-based; design: expressed in transfected cells; host or cells: HEK293 (pool), Ba/F3 (clones), BEAS2B (clones); lentiviral vector pCDH-CMV-MCS-EF1-Neo; conditions: read-out: Ba/F3 YVMA pHER2 EC50
Procedure: Cell culture, plasmid cloning, and lentiviral transduction were carried out according to standard procedures. The Human HER2 cDNA construct in pCMV6-Entry for the HER2 wildtype (WT) expression was obtained from Origene. The HER2 cDNA including the 12-nucleotide insertion corresponding to YVMA insertion (HER2YVMA) was codon optimized, synthesized and cloned by GenScript (Piscataway, NJ) in pcDNA3.1. The lentiviral constructs expressing HER2YVMA and HER2 WT were sub-cloned using PCR at System Biosciences (SBI, Mountainview, CA) into lentiviral vectors pCDH-CMV-MCS-EF1-Neo and lentiviral particles were generated.
Engineered lines expressing HER2YVMA and HER2 WT were prepared in HEK293 (human embryonic kidney cells), Ba/F3 (Interleukin 3 (IL3)-dependent murine pro B cell line), and BEAS2B (primary immortalized human bronchial epithelial cell line). Ba/F3, BEAS2B, and HEK293 cells were obtained from the American Type Culture Collection (ATCC, Manassas, VA). Parental Ba/F3 cells were grown in suspension in complete RPMI 1640 supplemented with 10% FBS and 1% P/S and 10 ng/ml interleukin 3 (IL3, Sigma-Aldrich). Hek293 and BEAS2B cells were grown as monolayers in DMEM supplemented with 10% FBS and 1% P/S. All cells were maintained and propagated in a humidified 5% CO2 incubator at 37° C.
To generate Ba/F3, BEAS2B, and Hek-293 cells engineered with lentivirus to express HER2 WT or HER2YVMA, the cells were transduced with lentiviruses at multiplicity of infection (MOI) of 1 or 10; transduced cells were selected and maintained with G418 ([…]) (Geneticin, Life Technologies, Carlsbad, CA). Ba/F3 engineered cells were subjected to gradual withdrawal of interleukin 3 (IL-3, Sigma-Aldrich). After selection, IL3 independent Ba/F3 HER2YVMA, and BEAS2B HER2YVMA cells were cloned by limiting dilution. Hek293 HER2YVMA cells were used as pool. HER2 and phospho HER2 levels were confirmed by flow cytometery and immunoassay (MSD, Meso-Scale Discovery, Rockville, Maryland).
Compound treatment of Ba/F3-HER2YVMA suspension cells was done as described with minor modifications. Cells were plated at 300000 cell/well in 96-well round bottom plates in RPMI supplemented with 2% FBS and immediately dosed with compounds serially diluted in media without serum for a final concentration of 1% FBS, 0.1% DMSO. Cells were incubate with compounds for 1.5 hr, and plates were spun at 1500 rpm for 5 mins to remove media without disturbing pellet. Cells were lysed as described above.
HER2 signaling was evaluated using phospho (Tyr1248)/total ErbB2 whole cell lysate MSD plates (Meso-Scale Discovery, Gaithersburg, MD). The phospho HER2 signal was normalized to total HER2 for each sample; results are reported as % DMSO control. The normalized data was fitted using a sigmoidal curve analysis program (Graph Pad Prism version 6) with variable Hill slope to determine EC50 values.
The HER2 signaling results are provided in Table 4, under columns titled “BT474-pHER2 EC50”, “N87-pHER2 EC50”, and “NCI-H1781-pHER2 EC50”. Hek293-HER2YVMA ins fall under the heading “HEKYVMA-pHER2 EC50”, Ba/F3 HER2YVMA fall under the heading “Ba/F3 YVMA-pHER2 EC50” and BEAS2B-HER2YVMA fall under the heading “BEAS2B YVMA-pHER2 EC50”.

Row | Structure (SMILES) | EC50 [1] | EC50 [2]
1 | Cc1ccc(Oc2ccc(Nc3ncnc4sc5c(c34)CCN(C(=O)/C=C/CN(C)C)C5)cc2C)cn1 [Compound 8, (E)-4-(Dimethylamino)-1-(4-((3-methyl-4-((6-methylpyridin-3-yl)oxy)phenyl)amino)-5,6-dihydropyrido[4′,3′:4,5]thieno[2,3-d]pyrimidin-7(8H)-yl)but-2-en-1-one] | < 0.1 µM | < 0.1 µM
2 | Cc1cc(Nc2ncnc3sc4c(c23)CCN(C(=O)/C=C/CN2CCOCC2)C4)ccc1Oc1ccc2ncnn2c1 [Compound 12] | – | < 0.1 µM
3 | Cc1ccc(Oc2ccc(Nc3ncnc4sc5c(c34)CCN(C(=O)/C=C/CN3CC4CCC(C4)C3)C5)cc2C)cn1 [Compound 16, (E)-4-(3-azabicyclo[3.2.1]octan-3-yl)-1-(4-((3-methyl-4-((6-methylpyridin-3-yl)oxy)phenyl)amino)-5,8-dihydropyrido[4′,3′:4,5]thieno[2,3-d]pyrimidin-7(6H)-yl)but-2-en-1-one benzenesulfonate salt] | < 0.1 µM | < 0.1 µM
4 | Cc1ccc(Oc2ccc(Nc3ncnc4sc5c(c34)CCN(C(=O)/C=C/CN3CCOCC3)C5)cc2C)cn1 [Compound 17, (E)-1-(4-((3-Methyl-4-((6-methylpyridin-3-yl)oxy)phenyl)amino)-5,6-dihydropyrido[4′,3′:4,5]thieno[2,3-d]pyrimidin-7(8H)-yl)-4-morpholinobut-2-en-1-one] | < 0.1 µM | < 0.1 µM
